# In patent publication US7420001B2 (Wyeth, priority 2003, dated 2008):
# Like-named read-outs stand apart in the source and are kept apart here.
# Assays:
# MMP-2 = target: T1, MMP-2 (Homo sapiens, UniProt P08253); assay: In-vitro fluorescence assay of MMP-2 activity; format: biochemical; details: recombinant human MMP-2; read-out: MMP-2 IC50
# T1 construct: purchased Oncogene Research Products (Calbiochem) PF023
# T1 sequence (P08253 110-660): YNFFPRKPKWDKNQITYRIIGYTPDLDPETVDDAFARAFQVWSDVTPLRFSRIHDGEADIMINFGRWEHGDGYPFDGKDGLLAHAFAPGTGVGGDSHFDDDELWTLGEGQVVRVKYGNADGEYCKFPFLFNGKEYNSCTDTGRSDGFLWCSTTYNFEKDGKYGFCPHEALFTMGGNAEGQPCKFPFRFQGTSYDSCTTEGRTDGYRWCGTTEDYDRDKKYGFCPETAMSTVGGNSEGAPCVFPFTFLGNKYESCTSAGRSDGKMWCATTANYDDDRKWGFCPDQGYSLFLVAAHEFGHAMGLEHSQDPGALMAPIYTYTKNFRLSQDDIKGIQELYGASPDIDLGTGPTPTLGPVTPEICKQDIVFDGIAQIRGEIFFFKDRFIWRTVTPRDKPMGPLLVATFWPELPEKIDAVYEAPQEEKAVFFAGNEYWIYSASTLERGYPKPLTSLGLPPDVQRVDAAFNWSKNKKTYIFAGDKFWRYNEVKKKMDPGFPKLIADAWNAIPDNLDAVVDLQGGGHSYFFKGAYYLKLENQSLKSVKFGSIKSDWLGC
# Text: A continuous assay was used in which the substrate is a synthetic peptide containing a fluorescent group (7-methoxycoumarin; Mca) which is quenched by energy transfer to a 2,4-dinitrophenyl group. […] The source of enzyme in the assay was the recombinant human MMP-2 (66 kDa) purchased from Oncogene Research Products (catalog number PF023 from Calbiochem). The substrate used was Mca-PQGL-(3-[2,4-dinitrophenyl]-L-2,3-diaminopropionyl)-AR-OH (denoted as Wammp-5, custom synthesized by AnaSpec, Inc.). The assay buffer consisted of 50 mM Hepes (pH 7.4), 100 mM NaCl, 5 mM CaCl2, and 0.005% Brij-35. […] The enzymatic reactions were initiated by adding the substrate to a final concentration of 20 μM, and mixing 10 times with a pipette. The final DMSO concentration in the assay was 6.0%.
# (§1) Plots of the inhibitor concentration vs. the percent inhibition were fit to the following equation: y=(a−d)/[1+(x/c)^b]+d, a general sigmoidal curve with Hill slope, a to d. x is the inhibitor concentration under test. y is the percent inhibition. a is the limiting response as x approaches zero. As x increases without bound, y tends toward its limit d. c is the inflection point (IC50) for the curve. That is, y is halfway between the lower and upper asymptotes when x=c. b is the slope factor or Hill coefficient.
# MMP-13 = target: T2, MMP-13 (Homo sapiens, UniProt P45452); assay: In-vitro fluorescence assay of MMP-13 activity; format: biochemical
# T2 construct: made in house
# Experimental: A continuous assay was used in which the substrate is a synthetic peptide containing a fluorescent group (7-methoxycoumarin; Mca) which is quenched by energy transfer to a 2,4-dinitrophenyl group. […] The substrate used was Mca-PQGL-(3-[2,4-dinitrophenyl]-L-2,3-diaminopropionyl)-AR-OH (denoted as Wammp-5, custom synthesized by AnaSpec, Inc.). The assay buffer consisted of 50 mM Hepes (pH 7.4), 100 mM NaCl, 5 mM CaCl2, and 0.005% Brij-35. Each well of black polystyrene 96-well plates contained a 200 μL reaction mixture consisting of assay buffer, purified MMP (final concentration of 0.5 nM, prepared by diluting with the assay buffer), and varied concentrations of inhibitor (prepared by serially diluting a given inhibitor in DMSO in 96-well polypropylene plate). […] The enzymatic reactions were initiated by adding the substrate to a final concentration of 20 μM, and mixing 10 times with a pipette. The final DMSO concentration in the assay was 6.0%.
# as §1
# [1] = recombinant human catalytic domain of MMP-13, read-out: MMP-13 IC50
SMILES,IC50 (MMP-2) [nM],"IC50 (MMP-13; MMP-13 IC50, recombinant human catalytic domain of MMP-13) [nM]",IC50 (MMP-13; [1]) [nM]
"CC(C)C(NS(=O)(=O)c1ccc(-c2ccc(NC(=O)c3cc4cc(NS(C)(=O)=O)ccc4o3)cc2)cc1)C(=O)O (stereo in doubt) [Example 8, N-({4′-[({5-[(methylsulfonyl)amino]-1-benzofuran-2-yl}carbonyl)amino]-1,1′-biphenyl-4-yl}sulfonyl)-L-valine]",3.9,0.4,
"CC(=O)Nc1ccc2oc(C(=O)Nc3ccc(-c4ccc(S(=O)(=O)NC(C(=O)O)C(C)C)cc4)cc3)cc2c1 (stereo in doubt) [Example 9, N-{[4′-({[5-(acetylamino)-1-benzofuran-2-yl]carbonyl}amino)-1,1′-biphenyl-4-yl]sulfonyl}-L-valine]",4,,1.3
"COc1c(Br)ccc2oc(C(=O)Nc3ccc(-c4ccc(S(=O)(=O)NC(C(=O)O)C(C)C)cc4)cc3)c(C)c12 (stereo in doubt) [Example 119, (R)-2-{4′-[(5-Bromo-4-methoxy-3-methyl-benzofuran-2-carbonyl)-amino]-biphenyl-4-sulfonylamino}-3-methyl-butyric acid]",688,,3.4
CC(C)[C@H](NS(=O)(=O)c1ccc(-c2ccc(NC(=O)c3cc4cc(Cl)ccc4o3)cc2)cc1)C(=O)O [Example 4],4.1,,0.3
"COc1cccc2cc(C(=O)Nc3ccc(-c4ccc(S(=O)(=O)N[C@H](C(=O)O)C(C)C)cc4)cc3)oc12 [Example 5, N-[(4′-{[(7-methoxy-1-benzofuran-2-yl)carbonyl]amino}-1,1′-biphenyl-4-yl)sulfonyl]-L-valine]",,,10.4
"CC(C)[C@H](NS(=O)(=O)c1ccc(-c2ccc(NC(=O)c3cc4cc([N+](=O)[O-])ccc4o3)cc2)cc1)C(=O)O [Example 6, N-[(4′-{[(5-nitro-1-benzofuran-2-yl)carbonyl]amino}-1,1′-biphenyl-4-yl)sulfonyl]-L-valine]",3.3,,0.7
"CC(C)[C@H](NS(=O)(=O)c1ccc(-c2ccc(NC(=O)c3cc4cc(N)ccc4o3)cc2)cc1)C(=O)O [Example 7, N-[(4′-{[(5-amino-1-benzofuran-2-yl)carbonyl]amino}-1,1′-biphenyl-4-yl)sulfonyl]-L-valine]",,,1.5
"CC(C)[C@H](NS(=O)(=O)c1ccc(-c2ccc(NC(=O)c3cc4cc(NS(=O)(=O)c5ccccc5)ccc4o3)cc2)cc1)C(=O)O [Example 10, 4′-[(5-Benzenesulfonylamino-benzofuran-2-carbonyl)-amino]-biphenyl-4-sulfonyl-L-valine]",19,,3.4
"CC(C)[C@H](NS(=O)(=O)c1ccc(-c2ccc(NC(=O)c3cc4c(OCc5ccccc5)cccc4o3)cc2)cc1)C(=O)O [Example 13, 4′-[(4-Benzyloxy-benzofuran-2-carbonyl)-amino]-biphenyl-4-sulfonyl-L-valine]",62,,
"O=C(Nc1ccc(-c2ccc(S(=O)(=O)N[C@@H](Cc3cnc[nH]3)C(=O)O)cc2)cc1)c1cc2ccccc2o1 [Example 17, N-({4′-[(1-Benzofuran-2-ylcarbonyl)amino]-1,1′-biphenyl-4-yl}sulfonyl)-L-Histidine]",37,,
"Cc1cc(-c2cccc3oc(C(=O)Nc4ccc(-c5ccc(S(=O)(=O)N[C@H](C(=O)O)C(C)C)cc5)cc4)c(C)c23)on1 [Example 35, L-3-Methyl-2-(4′-{[3-methyl-4-(3-methyl-isoxazol-5-yl)-benzofuran-2-carbonyl]-amino}-biphenyl-4-sulfonylamino)-butyric acid]",,,9.9
"COc1cc(OC)c2c(C)c(C(=O)Nc3ccc(-c4ccc(S(=O)(=O)N[C@H](C(=O)O)C(C)C)cc4)cc3)oc2c1C [Example 44, L-2-{4′-[(4,6-Dimethoxy-3,7-dimethyl-benzofuran-2-carbonyl)-amino]-biphenyl-4-sulfonylamino}-3-methyl-butyric acid]",,,286
"CC(C)[C@H](NS(=O)(=O)c1ccc(-c2ccc(NC(=O)c3oc4ccccc4c3-c3ccccc3)cc2)cc1)C(=O)O [Example 54, L-3-Methyl-2-{4′-[(3-phenyl-benzofuran-2-carbonyl)-amino]-biphenyl-4-sulfonylamino}-butyric acid]",,,220
"Cc1nc(-c2ccc(C(F)(F)F)cc2)sc1C(=O)Nc1ccc(-c2ccc(S(=O)(=O)N[C@H](C(=O)O)C(C)C)cc2)cc1 [Example 66, (S)-3-Methyl-2-(4′-{[4-methyl-2-(4-trifluoromethyl-phenyl)-thiazole-5-carbonyl]-amino}-biphenyl-4-sulfonylamino)-butyric acid]",,,121
"CC(C)[C@H](NS(=O)(=O)c1ccc(-c2ccc(NC(=O)c3cc4ccccc4o3)cn2)cc1)C(=O)O [Example 76, 4-{5-[(Benzofuran-2-carbonyl)-amino]-pyridin-2-yl}-benzenesulfonyl-L-valine]",,,3.1
"CC(C)[C@@H](C(=O)O)N(C)S(=O)(=O)c1ccc(-c2ccc(NC(=O)c3cc4ccccc4o3)cc2)cc1 [Example 78, N-({4′-[(1-Benzofuran-2-ylcarbonyl)amino]-1,1′-biphenyl-4-yl}sulfonyl)-N-methyl-L-valine]",,,5600
"CC(C)[C@@H](C(=O)O)N(Cc1cccnc1)S(=O)(=O)c1ccc(-c2ccc(NC(=O)c3cc4ccccc4o3)cc2)cc1 [Example 81, N-({4′-[(1-Benzofuran-2-ylcarbonyl)amino]-1,1′-biphenyl-4-yl}sulfonyl)-N-(pyridin-3-ylmethyl)-L-valine]",,,323
"CC(C)[C@H](NS(=O)(=O)c1ccc(-c2ccc(NC(=O)c3oc4cccc5c4c3CN(C)CC5)cc2)cc1)C(=O)O [Example 85, N-[(4′-{[(4-Methyl-3,4,5,6-tetrahydrofuro[4,3,2-ef][3]benzazepin-2-yl)carbonyl]amino}-1,1′-biphenyl-4-yl)sulfonyl]-L-valine]",,,294
"COc1c(C(C)=O)ccc2oc(C(=O)Nc3ccc(-c4ccc(S(=O)(=O)N[C@H](C(=O)O)C(C)C)cc4)cc3)c(C)c12 [Example 121, (S)-2-{4′-[(5-Acetyl-4-methoxy-3-methyl-benzofuran-2-carbonyl)-amino]-biphenyl-4-sulfonylamino}-3-methyl-butyric acid]",,,1020
"C=C(Cl)c1ccc2oc(C(=O)Nc3ccc(-c4ccc(S(=O)(=O)N[C@H](C(=O)O)C(C)C)cc4)cc3)c(C)c2c1OC [Example 122, (S)-2-(4′-{[5-(1-Chloro-vinyl)-4-methoxy-3-methyl-benzofuran-2-carbonyl]-amino}-biphenyl-4-sulfonylamino)-3-methyl-butyric acid]",,,222
"COCCCc1cccc2oc(COc3ccc(-c4ccc(S(=O)(=O)N[C@H](C(=O)O)C(C)C)cc4)cc3)c(C)c12 [Example 147, N-[(4′-{[4-(3-methoxypropyl)-3-methyl-1-benzofuran-2-yl]methoxy}-1,1′-biphenyl-4-yl)sulfonyl]-L-valine]",,,1.9
"CC(C)[C@H](NS(=O)(=O)c1ccc(-c2ccc(NC(=O)c3csnn3)cc2)cc1)C(=O)O [Example 163, N-({4′-[(1,2,3-thiadiazol-4-ylcarbonyl)amino]-1,1′-biphenyl-4-yl}sulfonyl)-L-valine]",2,,
"CC(C)[C@H](NS(=O)(=O)c1ccc(-c2ccc(NS(=O)(=O)c3cccs3)cc2)cc1)C(=O)O [Example 170, (S)-3-Methyl-2-[4′-(thiophene-2-sulfonylamino)-biphenyl-4-sulfonylamino]-butyric acid]",,,2870
